Assay results as given in patent publication US5763435A, “Sulfate conjugates of ursodeoxycholic acid, and their beneficial use in inflammatory disorders” (priority 1995, dated 1998).

Assay: Plasma UDCA concentration after oral administration
Type: in vivo, Sprague-Dawley rats
Conditions: read-out: Unconjugated plasma UDCA concentration
Description: Male Sprague-Dawley rats (Harlan Sprague-Dawley, Inc., Indianapolis, Ind.), weighing 210-290 g, were maintained on a 12-hour light-dark cycle and fed standard laboratory chow ad libitum for 3 days. The animals were then transferred to metabolic cages in which they were housed individually and fed the same diet. UDCA, UDCA 3-sulfate, UDCA 7-sulfate, and UDCA 3,7-disulfate were administered by gavage at a dose of 250 mg/day for 4 consecutive days. Each group comprised 3-6 rats. Body weights of the animals were measured each day. On day 5, the animals were killed by exsanguination under ether anesthesia. Plasma was collected and frozen at -20° C. […]
In each group, urine from all animals was pooled on the individual days of collection. […] After the addition of nordeoxycholic acid (1 μg), bile acids were quantitatively extracted from portions of urine (3 mL) and plasma (1 mL) using Bond-Elut C18 cartridges. […]
GC-MS analysis was performed using a Finnigan 4635 mass spectrometer (Finnigan Inc., San Jose, Calif.) that housed an identical gas chromatography column operated under the same conditions. Electron ionization (70 eV) mass spectra were recorded over the mass range of 50-800 daltons by repetitive scanning of the eluting components. […]
Data are expressed as mean±SEM or as mean values of all animals when extracts were pooled before analysis. […]

## C[C@H](CCC(=O)O)[C@H]1CC[C@H]2[C@@H]3[C@@H](O)C[C@@H]4C[C@H](O)CC[C@]4(C)[C@H]3CC[C@]12C [UDCA, 3 alpha, 7 beta-dihydroxy-5 beta-cholan-24oic acid, reference compound]
  concentration: 4.8 ± 2.2 µM
